Experimental data as given in ChEMBL document CHEMBL6087402, “Design, synthesis, and in vitro and in vivo biological evaluation of dihydroartemisinin derivatives as potent anti-cancer agents with ferroptosis-inducing and apoptosis-activating properties” (Eur J Med Chem, 2025).

Key:
Type in all cases: functional, cell-based
SW-620 = assay: Anti-proliferative activity against human SW620 cells incubated for 72 hrs by MTT assay; settings: SW-620, 72 h
HCT-116 = assay: Anti-proliferative activity against human HCT-116 cells incubated for 72 hrs by MTT assay; settings: HCT-116, 72 h
A549 = assay: Anti-proliferative activity against human A549 cells incubated for 72 hrs by MTT assay; settings: A549, 72 h
Bel-7402 = assay: Anti-proliferative activity against human Bel-7402 cells incubated for 72 hrs by MTT assay; settings: Bel-7402, 72 h

Row | Compound | IC50 (SW-620) | IC50 (HCT-116) | IC50 (A549) | IC50 (Bel-7402)
1 | C[C@@H]1CC[C@H]2[C@@H](C)C(OC(=O)c3ccc4ncccc4c3)O[C@@H]3O[C@@]4(C)CC[C@H]1[C@]32OO4 (stereo partly drawn) | 3.02 µM | 3.22 µM | > 10 µM | > 10 µM
2 | COc1ccc2[nH]cc(CCNC(=O)CCC(=O)OC3O[C@@H]4O[C@@]5(C)CC[C@@H]6[C@H](C)CC[C@@H]([C@H]3C)[C@@]46OO5)c2c1 (stereo partly drawn) | 7.28 µM | 6.64 µM | > 10 µM | > 10 µM
3 | COc1ccc(-n2cc(C(=O)OC3O[C@@H]4O[C@@]5(C)CC[C@@H]6[C@H](C)CC[C@@H]([C@H]3C)[C@@]46OO5)nn2)cc1OC (stereo partly drawn) | 9.61 µM | 3.39 µM | > 10 µM | 8.62 µM
4 | COc1ccc(-c2noc(CCC(=O)OC3O[C@@H]4O[C@@]5(C)CC[C@@H]6[C@H](C)CC[C@@H]([C@H]3C)[C@@]46OO5)n2)cc1 (stereo partly drawn) | > 10 µM | 3.48 µM | > 10 µM | 4.96 µM
5 | C[C@@H]1CC[C@H]2[C@@H](C)C(OC(=O)CCC(=O)OCc3cn(-c4ccc(Cl)cc4)nn3)O[C@@H]3O[C@@]4(C)CC[C@H]1[C@]32OO4 (stereo partly drawn) | 1.1 µM | 3.03 µM | > 10 µM | > 10 µM
6 | C[C@@H]1CC[C@H]2[C@@H](C)C(OC(=O)c3cc4ccccc4cn3)O[C@@H]3O[C@@]4(C)CC[C@H]1[C@]32OO4 (stereo partly drawn) | 4.81 µM | 5.51 µM | > 10 µM | > 10 µM
7 | C[C@@H]1CC[C@H]2[C@@H](C)C(OC(=O)c3ccc(Cn4cc(Cl)cn4)cc3)O[C@@H]3O[C@@]4(C)CC[C@H]1[C@]32OO4 (stereo partly drawn) | 5.17 µM | 2.6 µM | 5.07 µM | > 10 µM
8 | C[C@@H]1CC[C@H]2[C@@H](C)C(OC(=O)c3ccc(Cn4cncn4)cc3)O[C@@H]3O[C@@]4(C)CC[C@H]1[C@]32OO4 (stereo partly drawn) | 8.32 µM | 3.39 µM | 7.19 µM | > 10 µM
9 | CCCCNC(=O)OC1O[C@@H]2O[C@@]3(C)CC[C@@H]4[C@H](C)CC[C@@H]([C@H]1C)[C@@]24OO3 (stereo partly drawn) | > 10 µM | 3.51 µM | > 10 µM | > 10 µM
10 | C[C@@H]1CC[C@H]2[C@@H](C)C(OC(=O)CCc3nc(-c4ccc(Cl)cc4)no3)O[C@@H]3O[C@@]4(C)CC[C@H]1[C@]32OO4 (stereo partly drawn) | > 10 µM | 3.68 µM | 6.79 µM | 7.05 µM
11 | C[C@@H]1CC[C@H]2[C@@H](C)C(OC(=O)c3cn(-c4ccc([N+](=O)[O-])cc4)nn3)O[C@@H]3O[C@@]4(C)CC[C@H]1[C@]32OO4 (stereo partly drawn) | 4.22 µM | > 10 µM | > 10 µM | > 10 µM
12 | C[C@@H]1CC[C@H]2[C@@H](C)C(OC(=O)CCC(=O)NCCc3c[nH]c4ccc(Cl)cc34)O[C@@H]3O[C@@]4(C)CC[C@H]1[C@]32OO4 (stereo partly drawn) | 1.73 µM | 4.99 µM | 7.25 µM | > 10 µM
13 | C[C@@H]1CC[C@H]2[C@@H](C)C(OC(=O)c3cn(-c4ccc(F)cc4)nn3)O[C@@H]3O[C@@]4(C)CC[C@H]1[C@]32OO4 (stereo partly drawn) | 9.51 µM | 3.38 µM | > 10 µM | > 10 µM
14 | COc1ccc(-n2cc(C(=O)OC3O[C@@H]4O[C@@]5(C)CC[C@@H]6[C@H](C)CC[C@@H]([C@H]3C)[C@@]46OO5)nn2)cc1 (stereo partly drawn) | 8.4 µM | 3.18 µM | > 10 µM | 8.7 µM
15 | C[C@@H]1CC[C@H]2[C@@H](C)C(OC(=O)c3ccc(Cn4cccn4)cc3)O[C@@H]3O[C@@]4(C)CC[C@H]1[C@]32OO4 (stereo partly drawn) | > 10 µM | 2.31 µM | 7.01 µM | > 10 µM
16 | COc1cc(-n2cc(C(=O)OC3O[C@@H]4O[C@@]5(C)CC[C@@H]6[C@H](C)CC[C@@H]([C@H]3C)[C@@]46OO5)nn2)cc(OC)c1OC (stereo partly drawn) | 1.9 µM | 4.32 µM | > 10 µM | > 10 µM

Row | Compound | IC50 (SW-620) | IC50 (HCT-116) | IC50 (A549) | IC50 (Bel-7402)
17 | C[C@@H]1CC[C@H]2[C@@H](C)C(OC(=O)c3ccc(Cn4cc(Br)cn4)cc3)O[C@@H]3O[C@@]4(C)CC[C@H]1[C@]32OO4 (stereo partly drawn) | > 10 µM | 1.9 µM | 4.9 µM | 8.53 µM
18 | C[C@@H]1CC[C@H]2[C@@H](C)C(OC(=O)c3cnc4ccccc4c3)O[C@@H]3O[C@@]4(C)CC[C@H]1[C@]32OO4 (stereo partly drawn) | > 10 µM | 2.62 µM | > 10 µM | 8.4 µM
19 | C[C@@H]1CC[C@H]2[C@@H](C)C(OC(=O)CCc3nc(-c4ccccc4)no3)O[C@@H]3O[C@@]4(C)CC[C@H]1[C@]32OO4 (stereo partly drawn) | 7.9 µM | 4.35 µM | 9.1 µM | 3.99 µM
20 | C[C@@H]1CC[C@H]2[C@@H](C)C(OC(=O)c3ccc(CN4CCCCC4)cc3)O[C@@H]3O[C@@]4(C)CC[C@H]1[C@]32OO4 (stereo partly drawn) | 7.1 µM | 2.31 µM | > 10 µM | > 10 µM
21 | C[C@@H]1CC[C@H]2[C@@H](C)C(OC(=O)c3cn(-c4ccc(Cl)cc4)nn3)O[C@@H]3O[C@@]4(C)CC[C@H]1[C@]32OO4 (stereo partly drawn) | 8.21 µM | 3.12 µM | > 10 µM | 9.24 µM
22 | COc1ccc(-n2cc(COC(=O)CCC(=O)OC3O[C@@H]4O[C@@]5(C)CC[C@@H]6[C@H](C)CC[C@@H]([C@H]3C)[C@@]46OO5)nn2)cc1OC (stereo partly drawn) | 2.89 µM | 1.79 µM | 8.03 µM | > 10 µM
23 | C[C@@H]1CC[C@H]2[C@@H](C)C(OC(=O)CCC(=O)OCc3cn(-c4ccc(F)cc4)nn3)O[C@@H]3O[C@@]4(C)CC[C@H]1[C@]32OO4 (stereo partly drawn) | 2.33 µM | 2.21 µM | 6.28 µM | > 10 µM
24 | C[C@@H]1CC[C@H]2[C@@H](C)C(OC(=O)CCc3nc(-c4ccc(Cl)c(Cl)c4)no3)O[C@@H]3O[C@@]4(C)CC[C@H]1[C@]32OO4 (stereo partly drawn) | > 10 µM | 2.13 µM | 9.09 µM | > 10 µM
25 | CCCCCNC(=O)OC1O[C@@H]2O[C@@]3(C)CC[C@@H]4[C@H](C)CC[C@@H]([C@H]1C)[C@@]24OO3 (stereo partly drawn) | 1.42 µM | 1.82 µM | 7.5 µM | > 10 µM
26 | C[C@@H]1CC[C@H]2[C@@H](C)C(OC(=O)c3cccc4ncccc34)O[C@@H]3O[C@@]4(C)CC[C@H]1[C@]32OO4 (stereo partly drawn) | 3.01 µM | 3.73 µM | > 10 µM | > 10 µM
27 | C[C@@H]1CC[C@H]2[C@@H](C)C(OC(=O)CCC(=O)OCc3cn(-c4ccccc4)nn3)O[C@@H]3O[C@@]4(C)CC[C@H]1[C@]32OO4 (stereo partly drawn) | 1.79 µM | 2.38 µM | 6.51 µM | > 10 µM
28 | COc1ccc(-n2cc(COC(=O)CCC(=O)OC3O[C@@H]4O[C@@]5(C)CC[C@@H]6[C@H](C)CC[C@@H]([C@H]3C)[C@@]46OO5)nn2)cc1 (stereo partly drawn) | 1.59 µM | 2.78 µM | 7.18 µM | > 10 µM
29 | C[C@@H]1CC[C@H]2[C@@H](C)C(OC(=O)CCc3nc(-c4ccc(F)cc4)no3)O[C@@H]3O[C@@]4(C)CC[C@H]1[C@]32OO4 (stereo partly drawn) | 7.17 µM | 2.94 µM | 6.55 µM | 5.07 µM
30 | C[C@@H]1CC[C@H]2[C@@H](C)C(OC(=O)c3cn(-c4ccc(Br)cc4)nn3)O[C@@H]3O[C@@]4(C)CC[C@H]1[C@]32OO4 (stereo partly drawn) | 7.42 µM | 3.87 µM | > 10 µM | > 10 µM
31 | C[C@@H]1CC[C@H]2[C@@H](C)C(OC(=O)NC(=O)c3ccccc3)O[C@@H]3O[C@@]4(C)CC[C@H]1[C@]32OO4 (stereo partly drawn) | > 10 µM | 5.48 µM | > 10 µM | > 10 µM
32 | C[C@@H]1CC[C@H]2[C@@H](C)C(OC(=O)c3cn(-c4ccccc4)nn3)O[C@@H]3O[C@@]4(C)CC[C@H]1[C@]32OO4 (stereo partly drawn) | 7.22 µM | 3.41 µM | > 10 µM | > 10 µM
